# Assay results reported in ChEMBL document CHEMBL1151454, “Failures in clinical treatment of Staphylococcus aureus Infection with daptomycin are associated with alterations in surface charge, membrane phospholipid asymmetry, and drug binding” (Antimicrob Agents Chemother, 2008).
# Active and inactive are the calls of the source. The calls are words filed in the database; no cut-off is given here.
# Tests used:
# Staphylococcus aureus [1] = test: Induction of cell membrane depolarization in daptomycin-nonsusceptible Staphylococcus aureus isolate 701 bloodstream form isolated from patient with endocarditis at 6 ug/ml after 60 mins by flow cytometry; type: functional, organism-based
# Staphylococcus aureus [2] = test: Drug binding to daptomycin-nonsusceptible Staphylococcus aureus isolate 703 bloodstream form isolated from patient with endocarditis at 6 ug after 10 mins by radial diffusion assay; type: ADME, organism-based
# Staphylococcus aureus [3] = test: Drug binding to daptomycin-transitional Staphylococcus aureus isolate 629 bloodstream form isolated from patient with endocarditis at 6 ug after 10 mins by radial diffusion assay; type: ADME, organism-based
# Staphylococcus aureus [4] = test: Antibacterial activity against daptomycin-transitional Staphylococcus aureus isolate 629 bloodstream form isolated from patient with endocarditis assessed as inhibition on heterogeneous subpopulation survival rate at 0.5 and 1 ug/ml after 48 hrs; type: functional, organism-based
# Staphylococcus aureus [5] = test: Antibacterial activity against daptomycin-transitional Staphylococcus aureus isolate 629 bloodstream form isolated from patient with endocarditis by Etest; type: functional
# Staphylococcus aureus [6] = test: Reduction of membrane permeabilization in daptomycin-nonsusceptible Staphylococcus aureus isolate 701 bloodstream form isolated from patient with endocarditis assessed as calcein retention at 1.5 ug/ml after 120 mins by fluorometric analysis; type: functional, organism-based
# Staphylococcus aureus [7] = test: Induction of cell membrane depolarization in daptomycin-transitional Staphylococcus aureus isolate 629 bloodstream form isolated from patient with endocarditis at 0.75 ug/ml after 60 mins by flow cytometry; type: functional, organism-based
# Staphylococcus aureus [8] = test: Induction of cell membrane depolarization in daptomycin-transitional Staphylococcus aureus isolate 629 bloodstream form isolated from patient with endocarditis at 40 ug/ml after 60 mins by flow cytometry; type: functional, organism-based
# Staphylococcus aureus [9] = test: Reduction of membrane permeabilization in methicillin-susceptible Staphylococcus aureus isolate 616 bloodstream form isolated from patient with endocarditis assessed as calcein retention at 1.5 ug/ml after 120 mins by fluorometric analysis; type: functional, organism-based
# Staphylococcus aureus [10] = test: Induction of cell membrane depolarization in daptomycin-nonsusceptible Staphylococcus aureus isolate 701 bloodstream form isolated from patient with endocarditis at 0.75 ug/ml after 60 mins by flow cytometry; type: functional, organism-based
# Staphylococcus aureus [11] = test: Induction of autolysis in daptomycin-nonsusceptible Staphylococcus aureus isolate 703 bloodstream form isolated from patient 6 ug/ml within 4 to 24 hrs; type: functional, organism-based
# Staphylococcus aureus [12] = test: Induction of autolysis in daptomycin-nonsusceptible Staphylococcus aureus isolate 701 bloodstream form isolated from patient 6 ug/ml within 4 to 24 hrs; type: functional, organism-based
# Staphylococcus aureus [13] = test: Antibacterial activity against daptomycin-nonsusceptible Staphylococcus aureus isolate 701 bloodstream form isolated from patient with endocarditis assessed as inhibition on heterogeneous subpopulation survival rate at 0.5 and 4 ug/ml after 48 hrs; type: functional, organism-based
# Staphylococcus aureus [14] = test: Antibacterial activity against daptomycin-nonsusceptible Staphylococcus aureus isolate 703 bloodstream form isolated from patient with endocarditis by Etest; type: functional
# Staphylococcus aureus [15] = test: Induction of cell membrane depolarization in daptomycin-nonsusceptible Staphylococcus aureus isolate 703 bloodstream form isolated from patient with endocarditis at 6 ug/ml after 60 mins by flow cytometry; type: functional, organism-based
# Staphylococcus aureus [16] = test: Induction of cell membrane depolarization in daptomycin-nonsusceptible Staphylococcus aureus isolate 703 bloodstream form isolated from patient with endocarditis at 40 ug/ml after 60 mins by flow cytometry; type: functional, organism-based
# Staphylococcus aureus [17] = test: Antibacterial activity against methicillin-susceptible Staphylococcus aureus isolate 616 bloodstream form isolated from patient with endocarditis assessed as inhibition on heterogeneous subpopulation survival rate at 0.5 and 1 ug/ml after 48 hrs; type: functional, organism-based
# Staphylococcus aureus [18] = test: Antibacterial activity against daptomycin-nonsusceptible Staphylococcus aureus isolate 701 bloodstream form isolated from patient with endocarditis by Etest; type: functional
# Staphylococcus aureus [19] = test: Induction of cell membrane depolarization in daptomycin-nonsusceptible Staphylococcus aureus isolate 701 bloodstream form isolated from patient with endocarditis at 40 ug/ml after 60 mins by flow cytometry; type: functional, organism-based
# Staphylococcus aureus [20] = test: Induction of autolysis in methicillin-susceptible Staphylococcus aureus isolate 616 bloodstream form isolated from patient 6 ug/ml within 4 to 24 hrs; type: functional, organism-based
# Staphylococcus aureus [21] = test: Induction of cell membrane depolarization in daptomycin-nonsusceptible Staphylococcus aureus isolate 703 bloodstream form isolated from patient with endocarditis at 0.75 ug/ml after 60 mins by flow cytometry; type: functional, organism-based
# Staphylococcus aureus [22] = test: Induction of cell membrane depolarization in methicillin-susceptible Staphylococcus aureus isolate 616 bloodstream form isolated from patient with endocarditis at 40 ug/ml after 60 mins by flow cytometry; type: functional, organism-based
# Staphylococcus aureus [23] = test: Antibacterial activity against Staphylococcus aureus SA113 harboring null mutation in mprF gene by Etset; type: functional
# Staphylococcus aureus [24] = test: Reduction of membrane permeabilization in daptomycin-nonsusceptible Staphylococcus aureus isolate 703 bloodstream form isolated from patient with endocarditis assessed as calcein retention at 1.5 ug/ml after 120 mins by fluorometric analysis; type: functional, organism-based
# Staphylococcus aureus [25] = test: Induction of cell membrane depolarization in methicillin-susceptible Staphylococcus aureus isolate 616 bloodstream form isolated from patient with endocarditis at 6 ug/ml after 60 mins by flow cytometry; type: functional, organism-based
# Staphylococcus aureus [26] = test: microbe, parasite or virus in culture; details: 616
# Description: Antibacterial activity against methicillin-susceptible Staphylococcus aureus isolate 616 bloodstream form isolated from patient with endocarditis by Etest
# Staphylococcus aureus [27] = test: Antibacterial activity against Staphylococcus aureus SA113 by Etset; type: functional
# Staphylococcus aureus [28] = test: Reduction of membrane permeabilization in daptomycin-transitional Staphylococcus aureus isolate 629 bloodstream form isolated from patient with endocarditis assessed as calcein retention at 1.5 ug/ml after 120 mins by fluorometric analysis; type: functional, organism-based
# Staphylococcus aureus [29] = test: Drug binding to methicillin-susceptible Staphylococcus aureus isolate 616 bloodstream form isolated from patient with endocarditis at 6 ug after 10 mins by radial diffusion assay; type: ADME, organism-based; details: in vivo
# Staphylococcus aureus [30] = test: Drug binding to daptomycin-nonsusceptible Staphylococcus aureus isolate 701 bloodstream form isolated from patient with endocarditis at 6 ug after 10 mins by radial diffusion assay; type: ADME, organism-based
# Staphylococcus aureus [31] = test: Induction of cell membrane depolarization in methicillin-susceptible Staphylococcus aureus isolate 616 bloodstream form isolated from patient with endocarditis at 0.75 ug/ml after 60 mins by flow cytometry; type: functional, organism-based
# Staphylococcus aureus [32] = test: Antibacterial activity against daptomycin-nonusceptible Staphylococcus aureus isolate 703 bloodstream form isolated from patient with endocarditis assessed as inhibition on heterogeneous subpopulation survival rate at 0.5 and 4 ug/ml after 48 hrs; type: functional, organism-based
# Staphylococcus aureus [33] = test: Induction of cell membrane depolarization in daptomycin-transitional Staphylococcus aureus isolate 629 bloodstream form isolated from patient with endocarditis at 6 ug/ml after 60 mins by flow cytometry; type: functional, organism-based
# Staphylococcus aureus [34] = test: Induction of autolysis in daptomycin-nonsusceptible Staphylococcus aureus isolate 703 bloodstream form isolated from patient 50 ug/ml measured at 18 hrs; type: functional, organism-based
# Staphylococcus aureus [35] = test: Antibacterial activity against methicillin-susceptible Staphylococcus aureus isolate 616 bloodstream form isolated from patient with endocarditis assessed as inhibition on heterogeneous subpopulation survival rate at 0.25 and 1 ug/ml after 48 hrs; type: functional, organism-based
# Staphylococcus aureus [36] = test: Antibacterial activity against daptomycin-transitional Staphylococcus aureus isolate 629 bloodstream form isolated from patient with endocarditis assessed as inhibition on heterogeneous subpopulation survival rate at 0.25 and 1 ug/ml after 48 hrs; type: functional, organism-based
# Staphylococcus aureus [37] = test: Antibacterial activity against daptomycin-nonsusceptible Staphylococcus aureus isolate 703 bloodstream form isolated from patient with endocarditis assessed as inhibition on heterogeneous subpopulation survival rate at 0.25 and 1 ug/ml after 48 hrs; type: functional, organism-based
# Staphylococcus aureus [38] = test: Antibacterial activity against daptomycin-nonsusceptible Staphylococcus aureus isolate 701 bloodstream form isolated from patient with endocarditis assessed as inhibition on heterogeneous subpopulation survival rate at 0.25 and 1 ug/ml after 48 hrs; type: functional, organism-based
# Staphylococcus aureus [39] = test: Induction of autolysis in daptomycin-nonsusceptible Staphylococcus aureus isolate 703 bloodstream form isolated from patient 50 ug/ml within 24 hrs; type: functional, organism-based
# Staphylococcus aureus [40] = test: Induction of autolysis in daptomycin-transitional Staphylococcus aureus isolate 629 bloodstream form isolated from patient 50 ug/ml within 24 hrs; type: functional, organism-based
# Staphylococcus aureus [41] = test: Induction of autolysis in daptomycin-nonsusceptible Staphylococcus aureus isolate 701 bloodstream form isolated from patient 50 ug/ml within 24 hrs; type: functional, organism-based
# Staphylococcus aureus [42] = test: Induction of autolysis in methicillin-susceptible Staphylococcus aureus isolate 616 bloodstream form isolated from patient 50 ug/ml within 24 hrs; type: functional, organism-based
smiles,measurement,setting,value
CCCCCCCCCC(=O)N[C@@H](Cc1c[nH]c2ccccc12)C(=O)N[C@H](CC(N)=O)C(=O)N[C@@H](CC(=O)O)C(=O)N[C@@H]1C(=O)NCC(=O)N[C@@H](CCCN)C(=O)N[C@@H](CC(=O)O)C(=O)N[C@H](C)C(=O)N[C@@H](CC(=O)O)C(=O)NCC(=O)N[C@H](CO)C(=O)N[C@@H]([C@H](C)CC(=O)O)C(=O)N[C@@H](CC(=O)c2ccccc2N)C(=O)O[C@@H]1C,Activity,Staphylococcus aureus [1],inactive
same,Drug uptake,Staphylococcus aureus [2],2.24 µg/mL
same,Drug uptake,Staphylococcus aureus [3],1.61 µg/mL
same,Activity,Staphylococcus aureus [4],inactive
same,MIC,Staphylococcus aureus [5],0.75 µg/mL
same,Activity,Staphylococcus aureus [6],Active
same,Activity,Staphylococcus aureus [7],inactive
same,Activity,Staphylococcus aureus [8],inactive
same,Activity,Staphylococcus aureus [9],inactive
same,Activity,Staphylococcus aureus [10],inactive
same,Activity,Staphylococcus aureus [11],inactive
same,Activity,Staphylococcus aureus [12],inactive
same,Activity,Staphylococcus aureus [13],inactive
same,MIC,Staphylococcus aureus [14],2 µg/mL
same,Activity,Staphylococcus aureus [15],inactive
same,Activity,Staphylococcus aureus [16],inactive
same,Activity,Staphylococcus aureus [17],inactive
same,MIC,Staphylococcus aureus [18],2 µg/mL
same,Activity,Staphylococcus aureus [19],inactive
same,Activity,Staphylococcus aureus [20],Active
same,Activity,Staphylococcus aureus [21],inactive
same,Activity,Staphylococcus aureus [22],inactive
same,MIC,Staphylococcus aureus [23],0.094 µg/mL
same,Activity,Staphylococcus aureus [24],Active
same,Activity,Staphylococcus aureus [25],Active
same,MIC,Staphylococcus aureus [26],0.5 µg/mL
same,MIC,Staphylococcus aureus [27],0.38 µg/mL
same,Activity,Staphylococcus aureus [28],Active
same,Drug uptake,Staphylococcus aureus [29],5.4 µg/mL
same,Drug uptake,Staphylococcus aureus [30],2.32 µg/mL
same,Activity,Staphylococcus aureus [31],Active
same,Activity,Staphylococcus aureus [32],inactive
same,Activity,Staphylococcus aureus [33],inactive
CN[C@H](CC(C)C)C(=O)N[C@H]1C(=O)N[C@@H](CC(N)=O)C(=O)N[C@H]2C(=O)N[C@H]3C(=O)N[C@H](C(=O)N[C@H](C(=O)O)c4cc(O)cc(O)c4-c4cc3ccc4O)[C@H](O)c3ccc(c(Cl)c3)Oc3cc2cc(c3O[C@@H]2O[C@H](CO)[C@@H](O)[C@H](O)[C@H]2O[C@H]2C[C@](C)(N)[C@H](O)[C@H](C)O2)Oc2ccc(cc2Cl)[C@H]1O,Activity,Staphylococcus aureus [34],inactive
same,Activity,Staphylococcus aureus [35],inactive
same,Activity,Staphylococcus aureus [36],inactive
same,Activity,Staphylococcus aureus [37],inactive
same,Activity,Staphylococcus aureus [38],inactive
same,Activity,Staphylococcus aureus [39],inactive
same,Activity,Staphylococcus aureus [40],inactive
same,Activity,Staphylococcus aureus [41],inactive
same,Activity,Staphylococcus aureus [42],Active
